Reference: PubChem BioAssay (NCI)
Values joined by “and” are separate entries in the source; they are usually repeats but may differ in a detail not shown here. Identical values can stand only once.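 Dose response: 5 concentrations. Exposure: 48 h. Format: 96-well plates. Endpoint: linear interpolation; highest concentration if not reached. GI50 marks 50% less growth. Definition used: TGI = concentration required for complete inhibition of growth.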

Columns and labels:
Assay in all cases: NCI anticancer screen, dose series, 48 h
HS 578T breast = test system: HS 578T breast
SNB-75 CNS = test system: SNB-75 CNS
UO-31 renal = test system: UO-31 renal
SW-620 colon = test system: SW-620 colon
A498 renal = test system: A498 renal
SN12C renal = test system: SN12C renal
MDA-MB-231 breast = test system: MDA-MB-231 breast
OVCAR-5 ovarian = test system: OVCAR-5 ovarian
A549 NSCLC = test system: A549 NSCLC
NCI-H226 lung = test system: NCI-H226 lung

| Structure (SMILES) | GI50 (HS 578T breast) | TGI (HS 578T breast) | GI50 (SNB-75 CNS) | TGI (SNB-75 CNS) | GI50 (UO-31 renal) | TGI (UO-31 renal) | GI50 (SW-620 colon) | TGI (SW-620 colon) | GI50 (A498 renal) | TGI (A498 renal) | GI50 (SN12C renal) | TGI (SN12C renal) | GI50 (MDA-MB-231 breast) | TGI (MDA-MB-231 breast) | GI50 (OVCAR-5 ovarian) | TGI (OVCAR-5 ovarian) | GI50 (A549 NSCLC) | TGI (A549 NSCLC) | GI50 (NCI-H226 lung) | TGI (NCI-H226 lung) |
| --- | --- | --- | --- | --- | --- | --- | --- | --- | --- | --- | --- | --- | --- | --- | --- | --- | --- | --- | --- | --- |
| ClCCOCCn1cnc2c(Cl)nc(Cl)nc21 | 2.51 µM | 9.05 µM | 13.8 µM | 29.2 µM | 13.3 µM | 26.7 µM | 6.36 µM | 20.3 µM | 16.2 µM | 32.1 µM | 16.2 µM | 31.8 µM | 14.4 µM | 28.3 µM | 15 µM | 28.9 µM | 21.6 µM | 61.9 µM | 16.3 µM | 33.8 µM |
| CC(C)[C@@H]1CC[C@]2(CO2)[C@@H]2C(=O)OCC(C(=O)O)=C[C@H]21 | 0.288 µM | 2.3 µM | 0.422 µM | > 100 µM | 0.408 µM | 15.9 µM | 0.334 µM | > 100 µM | 0.203 µM | 0.738 µM | 0.32 µM | > 20.1 µM | 0.363 µM | > 75.6 µM | 0.54 µM | > 100 µM | 1.57 µM | > 100 µM | 0.667 µM | > 100 µM |
| COc1ccc(-c2nc3ccc(Cc4ccc5nc(-c6ccc(OC)cc6)[nH]c5c4)cc3[nH]2)cc1 | 0.0334 µM | 2.52 µM | 0.0259 µM | 1.23 µM | 0.217 µM | 2.09 µM | < 0.0151 µM | 0.173 µM | 0.018 µM | 0.193 µM | 0.165 µM | 2.29 µM | 0.0476 µM | 0.586 µM | 0.182 µM | 2.85 µM | 0.0438 µM | 0.237 µM | 0.475 µM | 2.56 µM |
| CCCCCCCCCCCC[C@@H](O)[C@H]1CC[C@H]([C@H](O)CC[C@H](O)[C@@H]2CC[C@@H](CCCCCCCC3=C[C@H](C)OC3=O)O2)O1 | > 50 µM | > 50 µM |  | > 50 µM | 2.51 µM | > 50 µM | 3.23 µM | > 50 µM |  | > 50 µM | > 50 µM | > 50 µM |  | > 50 µM |  | > 50 µM | 2.2 µM | > 50 µM |  | > 50 µM |
| Cc1cnc(C(=O)NNc2nc3sc4c(c3c(=O)[nH]2)C(C)CCC4)cn1 (stereo not drawn) | 4 µM | 84.4 µM | 0.259 µM | 15.1 µM | 0.414 µM | 3.64 µM | 2.62 µM | 79.2 µM | 2.84 µM | 16.8 µM | 1.17 µM | 31.4 µM | 1.85 µM | 18.1 µM | 2.1 µM | 15.8 µM | 1.23 µM | 14 µM | 1.7 µM | 12.3 µM |
| C=C(CN1CCc2[nH]c3ccc(F)cc3c2C1)c1ccc(C(=O)Nc2ccccc2N)cc1 | 1.07 µM | 14.1 µM | 2.14 µM | 7.4 µM | 0.997 µM | 4.14 µM | 0.715 µM | 15.6 µM | 1.5 µM | 4.62 µM | 3.82 µM | 14 µM | 2.82 µM | 11.3 µM | 4.32 µM | 20.6 µM | 1.17 µM | 9.17 µM | 2.47 µM | 7.32 µM |
| CC(=O)Oc1ccc(C2=Cc3ccc(OC(C)=O)cc3OC2C)cc1 (stereo not drawn) | 2.75 µM | 7.81 µM | 3.48 µM | 29.7 µM | 2.05 µM | 6.65 µM | 6.33 µM | 29.8 µM | 2.25 µM | 7.95 µM | 7.08 µM | > 100 µM | 5.06 µM | 63.7 µM | 21.1 µM | > 100 µM | 6.29 µM | > 100 µM | 4.96 µM | 53.8 µM |
| Cn1c(=O)c2nc3sc4c(n3c2n(C)c1=O)C(=O)c1ccccc1C4=O |  | 51.5 µM |  | 72.1 µM |  | > 76 µM |  | > 81.9 µM |  | > 100 µM |  | > 87.5 µM |  | > 64.6 µM |  | > 100 µM |  | > 100 µM |  | > 87.2 µM |
| C=CCN(CC=C)C(=O)c1cc(C)nc2c1c(=O)n(-c1ccccc1)c(=O)n2CCCN1CCN(c2ccccc2OC)CC1 | > 50 µM | > 50 µM | 31.4 µM | > 50 µM | > 50 µM | > 50 µM | > 50 µM | > 50 µM | > 50 µM | > 50 µM | > 50 µM | > 50 µM | > 50 µM | > 50 µM | > 50 µM | > 50 µM | > 50 µM | > 50 µM | > 50 µM | > 50 µM |
| CC[C@H](C)[C@H](NC(=O)[C@H]1CCCCN1C)C(=O)N(C)[C@H](C[C@@H](OC(C)=O)c1nc(C(=O)NC23CC(C(=O)OC)(C2)C3)cs1)C(C)C | 0.000388 µM and 0.00325 µM | > 32.5 µM | 0.000382 µM and 0.00325 µM | > 32.5 µM | 0.0109 µM and 0.00564 µM | > 32.5 µM | 0.000424 µM and 0.00325 µM | > 32.5 µM | 0.00723 µM and 0.00325 µM | 0.277 µM | 0.000654 µM and 0.00325 µM | > 32.5 µM | 0.00163 µM and 0.00363 µM | > 32.5 µM |  | > 32.5 µM | 0.00378 µM and 0.00325 µM | > 32.5 µM | 0.133 µM | 9.18 µM |
| CC(=O)Oc1c(C(=O)[O-])cc(C(C)C)cc1C(C)C.CC(=O)Oc1c(C(=O)[O-])cc(C(C)C)cc1C(C)C.CC(=O)Oc1c(C(=O)[O-])cc(C(C)C)cc1C(C)C.CC(=O)Oc1c(C(=O)[O-])cc(C(C)C)cc1C(C)C.[Cu+2].[Cu+2] | 50.5 µM | > 100 µM | 34.3 µM | 77.6 µM | 50.7 µM | > 100 µM | 42.1 µM | > 100 µM | 16 µM | 32.8 µM | 19.8 µM | 65.9 µM | 33.9 µM | > 100 µM | 57.2 µM | > 100 µM | 32.4 µM | > 100 µM | 69.3 µM | > 100 µM |
| CN1CCN(c2c(F)cc(NC3=C(Cl)C(=O)c4ncccc4C3=O)cc2F)CC1 | 11.2 µM | 56.4 µM | 10.9 µM | 23.9 µM | 1.52 µM | 2.95 µM | 1.76 µM | 3.82 µM | 13.4 µM | 29.2 µM | 3.22 µM | 13.2 µM | 3.47 µM | 12.3 µM | 14.8 µM | 28 µM | 18 µM | 35.4 µM | 22.2 µM | 55.9 µM |
| COc1ccc(-c2[nH]c3ccc(OC)cc3c2C=C(C#N)C#N)cc1 | 0.924 µM | > 100 µM | 0.551 µM | 97.7 µM | > 100 µM | > 100 µM | 0.568 µM | > 100 µM | 0.075 µM | 3.97 µM | 15.9 µM | > 100 µM | 1.18 µM | > 100 µM | > 100 µM | > 100 µM | 3.78 µM | > 100 µM | 1.45 µM | > 100 µM |
| COc1cc(OC)c(OC)cc1/C=C/c1nc2ccccc2s1 |  | > 100 µM |  | > 100 µM |  | > 100 µM |  | > 100 µM |  | > 100 µM |  | > 100 µM |  | > 100 µM |  | > 100 µM |  | > 100 µM |  | > 100 µM |
| CSc1nc2nc(-c3ccccc3)c(C)c-2c2n1C(C)C(=O)N2 (stereo not drawn) | 77.5 µM | > 100 µM | 43.2 µM | > 100 µM | 18.3 µM | > 100 µM | 58.8 µM | > 100 µM | 32.2 µM | > 100 µM | 52.6 µM | > 100 µM | 83.4 µM | > 100 µM | > 100 µM | > 100 µM | 40.1 µM | > 100 µM | 35.7 µM | > 100 µM |
| CC(C)Cc1ccc(C(C)/C=C2\CCC(CN(C)C)C2=O)cc1 (stereo not drawn) |  | 8.45 µM |  | 30.8 µM |  | 23.4 µM |  | 17.4 µM |  | 39.5 µM |  | 20.5 µM |  | 4.52 µM |  | 43.1 µM |  | 69.5 µM |  | 46.4 µM |
| Cc1cccc(Cn2cc(CO)c3cnccc32)c1 | > 100 µM | > 100 µM | 69.4 µM | > 100 µM | 46.4 µM | > 100 µM | > 100 µM | > 100 µM | 10 µM | 26.7 µM | > 100 µM | > 100 µM | > 100 µM | > 100 µM | > 100 µM | > 100 µM | > 100 µM | > 100 µM | 32 µM | > 100 µM |
| CCCCCC(=O)O[C@]1(C(C)=O)CCC2C3CCC4=CC(=O)CC[C@]4(C)C3CC[C@@]21C (stereo partly drawn) | 0.421 µM | > 50.5 µM | 2.15 µM | 12.6 µM | 1.93 µM | 10.3 µM | 2.86 µM | 15.1 µM | 1.3 µM | 3.88 µM | 1.6 µM | 3.37 µM | 2.49 µM | 7.88 µM | 5.04 µM | 22.3 µM | 2.78 µM | 15.9 µM | 1.8 µM | 4.78 µM |
| CCO/C=C1\SC(=S)N(c2ccc(OCC)cc2)C1=O |  | > 100 µM |  | > 100 µM |  | > 100 µM |  | > 100 µM |  | > 100 µM |  | > 100 µM |  | > 100 µM |  | > 100 µM |  | > 100 µM |  | > 100 µM |
| CCCCS(=O)c1sc2nc(-c3cccs3)cc(-c3ccccc3)c2c1N (stereo not drawn) | 18.9 µM | > 100 µM | 10.2 µM | 98.7 µM | 4.16 µM | 49.2 µM | 26 µM | > 100 µM | 8.02 µM | 76.9 µM | 24.9 µM | > 100 µM | 18.2 µM | > 100 µM | 24.7 µM | > 88.9 µM | 9.69 µM | > 100 µM | 17.8 µM | > 100 µM |
| O=C(Nc1ccc(OC(F)(F)Cl)cc1)c1cnc(N2CC[C@@H](O)C2)c(-c2ccn[nH]2)c1 | 17.6 µM | 49.3 µM | 12.7 µM | 26.5 µM | 11.9 µM | 31 µM | 5.84 µM | 20.5 µM | 14.8 µM | 31.2 µM | 12.6 µM | 28.9 µM | 4.73 µM | 21.5 µM | 12.9 µM | 34.2 µM | 10.5 µM | 33.6 µM | 11.8 µM | 30 µM |
| N#CC(C#N)=C/C=C(\Sc1ccc(Cl)cc1)c1ccc(F)cc1 | 2.75 µM | 22.8 µM | 16.6 µM | 31.7 µM | 1.85 µM | > 40.3 µM | 0.0532 µM |  | 3.42 µM | 8.67 µM | 0.986 µM | 7.26 µM | 1.84 µM | 6.25 µM | 1.37 µM | 15.3 µM | 8.61 µM | 32.3 µM | 2.72 µM | 17.8 µM |
